How the values were obtained:
[1] = (§1) The drug is tested on Z-024 corresponding to pig gut metagenome with ENA study accession number: PRJEB37062 and ENA sample accession number: ERS12561823 for biotransformation under anaerobic condition. The drug concentrations were measured over 9 timepoints collected between 0 and 24 hours of incubation by liquid-chromatography-coupled mass spectrometry (LC–MS); settings: 2 µM
[2] = as §1, with “WLS-073” for “Z-024”, “human” for “pig”, “ERS12561749” for “ERS12561823”; settings: 2 µM
[3] = as §1, with “WLS-006” for “Z-024”, “human” for “pig”, “ERS12561741” for “ERS12561823”; settings: 2 µM
[4] = human gut metagenome, 24 h, 2 µM
[5] = human gut metagenome, 24 h, 2 µM; remark: listed apart in the source
[6] = human gut metagenome, 24 h, 2 µM; remark: listed apart in the source
[7] = human gut metagenome, 24 h, 2 µM; remark: listed apart in the source
[8] = human gut metagenome, 24 h, 2 µM; remark: listed apart in the source
Also: call rule not given here.

Row | Structure (SMILES) | Bacterial Biotransformation [1] | Bacterial Biotransformation [2] | Bacterial Biotransformation [3] | Bacterial Biotransformation [4] | Bacterial Biotransformation [5] | Bacterial Biotransformation [6] | Bacterial Biotransformation [7] | Bacterial Biotransformation [8]
1 | CCC1(c2ccc(N)cc2)CCC(=O)NC1=O (centres undefined) [AMINOGLUTETHIMIDE] | Compound metabolized | Compound NOT metabolized | Compound NOT metabolized | Compound NOT metabolized | Compound NOT metabolized | Compound NOT metabolized | Compound NOT metabolized | Compound NOT metabolized
2 | OC(CCN1CCCCC1)(c1ccccc1)C1CC2C=CC1C2 (centres undefined) [BIPERIDEN] |  | Compound NOT metabolized | Compound metabolized | Compound NOT metabolized | Compound NOT metabolized | Compound metabolized | Compound metabolized | Compound metabolized
3 | CC(=O)O[C@]1(C(C)=O)CC[C@H]2[C@@H]3C=C(Cl)C4=CC(=O)[C@@H]5C[C@@H]5[C@]4(C)[C@H]3CC[C@@]21C [CYPROTERONE ACETATE] |  | Compound metabolized | Compound metabolized | Compound metabolized | Compound metabolized | Compound metabolized | Compound metabolized | Compound metabolized
4 | CN1C[C@H](C(=O)N[C@]2(C)O[C@@]3(O)[C@@H]4CCCN4C(=O)[C@H](Cc4ccccc4)N3C2=O)C=C2c3cccc4[nH]cc(c34)C[C@H]21.CN1C[C@H](C(=O)N[C@]2(C)O[C@@]3(O)[C@@H]4CCCN4C(=O)[C@H](Cc4ccccc4)N3C2=O)C=C2c3cccc4[nH]cc(c34)C[C@H]21.O=C(O)C(O)C(O)C(=O)O [ERGOTAMINE TARTRATE] |  | Compound NOT metabolized | Compound metabolized | Compound metabolized |  | Compound metabolized | Compound metabolized | Compound metabolized
5 | COC(=O)C1=C(C)NC(C)=C(C(=O)OC(C)C)C1c1cccc2nonc12 (centres undefined) [ISRADIPINE] |  | Compound NOT metabolized | Compound NOT metabolized | Compound metabolized | Compound metabolized | Compound metabolized | Compound metabolized | Compound metabolized
6 | COc1ccccc1N1CCN(CC(O)COc2cccc3ccccc23)CC1 (centres undefined) [NAFTOPIDIL] | Compound metabolized | Compound NOT metabolized | Compound NOT metabolized | Compound NOT metabolized | Compound NOT metabolized | Compound NOT metabolized | Compound NOT metabolized | Compound NOT metabolized
7 | CN(C(=O)CN(CCO)CC(=O)N(C)C(C)(C)Cc1ccccc1)C(C)(C)Cc1ccccc1 [OXETHAZAINE] |  | Compound metabolized | Compound metabolized | Compound metabolized | Compound metabolized | Compound metabolized | Compound metabolized | Compound metabolized
8 | CN1CCN(CC/C=C2/c3ccccc3Sc3ccc(S(=O)(=O)N(C)C)cc32)CC1 [THIOTHIXENE] |  | Compound metabolized | Compound metabolized | Compound metabolized | Compound metabolized | Compound metabolized | Compound metabolized | Compound metabolized
9 | CS(=O)(=O)O.O.O.O.O=C1Cc2cc(CCN3CCN(c4nsc5ccccc45)CC3)c(Cl)cc2N1 [ZIPRASIDONE MESYLATE] |  | Compound metabolized | Compound metabolized | Compound NOT metabolized | Compound metabolized | Compound metabolized | Compound metabolized | Compound metabolized

— ChEMBL document CHEMBL5724914, “Linking interpersonal differences in gut microbiota composition and drug biotransformation activity” (2024)
